Results taken from patent US20060160070A1, “Association-based epitome design” (Microsoft Corporation, priority 2004, published 2006).

Legend:
HLA A*0201 [1] = target: T1, HLA A*0201 (Homo sapiens, UniProt P04439, D140Y/D185E/D98H/E176V/E277Q/G131W/G231S/I119V/I121R/I166T/I218V/L300P/L318F/N151K/N90K/P208A/P217A/Q86G/Q94H/R138H/R169H/T345S); assay: ITOPIA peptide binding assay; conditions: 1.11×10^−4M of peptide
Procedure: (§1) Peptide binding, off-rate and affinity were measured according to the protocols described in the ITOPIA Epitope Discovery System Customer Guide. To conduct the experiments, ninety-six (96) micro-titer plates coated with MHC molecules representing the HLA alleles listed in Table 9 were used to identify candidate peptides. Determinations were performed in duplicate using an ELISA plate reader. The peptide binding assay used measures the ability of individual peptides to bind to the HLA molecules under standardized optimal binding conditions. The assay was performed for all the test peptides across the selected HLA alleles. The test peptides identified as “binders” were characterized further in terms of affinity and dissociation experiments. The off-rate assay used evaluates the dissociation of previously bound peptide at defined time points (expressed as the t1/2 value). The affinity assay used measures the relative binding affinities for the MHC molecules determined by incubating candidate peptides identified in the initial peptide binding assay at increasing concentrations (expressed as quantity of peptide needed to achieve 50% binding or ED50 value).
(§2) The binding of the test peptides (Table 8) to the HLA molecules (Table 9) was performed at a concentration of 1.11×10^−4M of peptide under optimal, standardized test conditions. A control peptide was run in parallel on the same plate and at the same concentration as the test peptides. […] The level of binding is expressed as a percent of positive control peptide binding for each allele.

HLA B*1501 [2] = target: T2, HLA B*1501 (Homo sapiens, UniProt P01889, A329T/A93T/A95T/C349S/D201E/D98Y/E187L/E204Q/E69M/E70A/K202T/N87E/Q94N/R155S/R180W/S121R/S35A/S48A/V306I/V36M/Y140S/Y91S); assay: ITOPIA peptide binding assay; conditions: 1.11×10^−4M of peptide
T2 construct: purchased
Procedure: as §1, §2

HLA A*0101 [3] = target: T3, HLA A*0101 (Homo sapiens, UniProt P04439, A114D/A174V/A182V/D101N/D185E/E176A/E190D/L180R/Q94H/R68K/S129P/T187R/V100A/V91M/W191G); assay: ITOPIA peptide binding assay; conditions: 1.11×10^−4M of peptide
T3 construct: purchased
Procedure: as §1, §2

HLA A*1101 [4] = target: T4, HLA A*1101 (Homo sapiens, UniProt P04439, A114D/D185E/E176A/F33Y/L180Q/S129P/T187R); assay: ITOPIA peptide binding assay; conditions: 1.11×10^−4M of peptide
T4 construct: purchased
Procedure: as §1, §2

HLA A*0301 [5] = target: T5, HLA A*0301 (Homo sapiens, UniProt P04439); assay: ITOPIA peptide binding assay; conditions: 1.11×10^−4M of peptide
T5 construct: purchased
Procedure: as §1, §2

HLA B*0702 [6] = target: T6, HLA B*0702 (Homo sapiens, UniProt P01889); assay: ITOPIA peptide binding assay; conditions: 1.11×10^−4M of peptide
T6 construct: purchased
Procedure: as §1, §2

HLA A*2402 [7] = target: T7, HLA A*2402 (Homo sapiens, UniProt P04439, D101N/D140Y/D185E/E176V/E190D/F33S/G103R/G107R/I119L/I121M/I306V/K335N/L105A/L180Q/L300P/N151K/N90K/Q86E/Q94H/R106L/R138H/R89G/T104I/T345S/V100E/W191G/Y123F); assay: ITOPIA peptide binding assay; conditions: 1.11×10^−4M of peptide
Procedure: as §1, §2

HLA B*0801 [8] = target: T8, HLA B*0801 (Homo sapiens, UniProt P01889, A93T/A95T/D138N/E176V/E187T/K202T/Q94N/R180D/S35A/V36M/Y33D/Y91F); assay: ITOPIA peptide binding assay; conditions: 1.11×10^−4M of peptide
T8 construct: purchased
Procedure: as §1, §2

HLA A*0201 [9] = target: T1, HLA A*0201; assay: Multi-parametric analysis iScore; type: binding; design: scale not given here; conditions: index integrating t1/2 and ED50
Procedure: (§3) Multi-parametric analysis was performed to integrate the half-life (t½) and ED50 parameters in an index (iScore). The iScore (Table 13) reflects the capability of a peptide to reconstitute with MHC molecules in a stable complex, defining its overall level of binding.

HLA B*1501 [10] = target: T2, HLA B*1501; assay: Multi-parametric analysis iScore; type: binding; design: scale not given here; conditions: index integrating t1/2 and ED50
Procedure: as §3

HLA A*0101 [11] = target: T3, HLA A*0101; assay: Multi-parametric analysis iScore; type: binding; design: scale not given here; conditions: index integrating t1/2 and ED50
Procedure: as §3

HLA A*1101 [12] = target: T4, HLA A*1101; assay: Multi-parametric analysis iScore; type: binding; design: scale not given here; conditions: index integrating t1/2 and ED50
Procedure: as §3

HLA A*0301 [13] = target: T5, HLA A*0301; assay: Multi-parametric analysis iScore; type: binding; design: scale not given here; conditions: index integrating t1/2 and ED50
Procedure: as §3

HLA B*0702 [14] = target: T6, HLA B*0702; assay: Multi-parametric analysis iScore; type: binding; design: scale not given here; conditions: index integrating t1/2 and ED50
Procedure: as §3

HLA A*2402 [15] = target: T7, HLA A*2402; assay: Multi-parametric analysis iScore; type: binding; design: scale not given here; conditions: index integrating t1/2 and ED50
Procedure: as §3

HLA B*0801 [16] = target: T8, HLA B*0801; assay: Multi-parametric analysis iScore; type: binding; design: scale not given here; conditions: index integrating t1/2 and ED50
Procedure: as §3

HLA A*0201 [17] = target: T1, HLA A*0201; assay: ITOPIA off-rate assay; type: binding; conditions: 37° C., one-phase exponential decay
Procedure: as §1
(§4) The peptides initially identified as binders were evaluated for stability based on their ability to remain bound to MHC molecules at 37° C. at time points 0, 0.5, 1, 1.5, 2, 4, 6 and 8 hours. […] The values obtained for each time point (in duplicate) are expressed (Table 11) as a percentage of the positive control. To calculate the t1/2 and goodness-of-fit, as measured by r^2, for each peptide, a one-phase exponential decay curve, with a plateau given equal to 0, was generated using […] PRISM software.

HLA A*2402 [18] = target: T7, HLA A*2402; assay: ITOPIA off-rate assay; type: binding; conditions: 37° C., one-phase exponential decay
Procedure: as §1, §4

Substance	level of binding, percent of positive control peptide binding (HLA A*0201 [1])	level of binding, percent of positive control peptide binding (HLA B*1501 [2])	level of binding, percent of positive control peptide binding (HLA A*0101 [3])	level of binding, percent of positive control peptide binding (HLA A*1101 [4])	level of binding, percent of positive control peptide binding (HLA A*0301 [5])	level of binding, percent of positive control peptide binding (HLA B*0702 [6])	level of binding, percent of positive control peptide binding (HLA A*2402 [7])	level of binding, percent of positive control peptide binding (HLA B*0801 [8])	iScore (HLA A*0201 [9])	iScore (HLA B*1501 [10])	iScore (HLA A*0101 [11])	iScore (HLA A*1101 [12])	iScore (HLA A*0301 [13])	iScore (HLA B*0702 [14])	iScore (HLA A*2402 [15])	iScore (HLA B*0801 [16])	A*0201 t1/2 (HLA A*0201 [17]) [h]	A*2402 t1/2 (HLA A*2402 [18]) [h]
70 (VPLTEEAEL; HIV) [compound 70]	5% of positive control	4% of positive control	1% of positive control	1% of positive control	0% of positive control	4% of positive control	6% of positive control	4% of positive control	0	0	0	0	0	0	0	0	–	–
155 (HNEWTLELL; HIV) [compound 155]	5% of positive control	0% of positive control	0% of positive control	1% of positive control	0% of positive control	1% of positive control	13% of positive control	3% of positive control	0	0	0	0	0	0	0	0	–	–
ALFYKLDVV [compound 72]	80% of positive control	4% of positive control	4% of positive control	1% of positive control	5% of positive control	3% of positive control	14% of positive control	3% of positive control	0.484	0	0	0	0	0	0	0	4.0	–
VTLTEEAEL [compound 156]	26% of positive control	7% of positive control	1% of positive control	1% of positive control	0% of positive control	0% of positive control	11% of positive control	4% of positive control	0.110	0	0	0	0	0	0	0	1.2	–
YNEWTLELL [compound 22]	7% of positive control	0% of positive control	0% of positive control	1% of positive control	0% of positive control	2% of positive control	35% of positive control	3% of positive control	0	0	0	0	0	0	0.071	0	–	1.5
